Where “and” joins values, the source holds several entries; their conditions need not be identical. Equal entries are not always repeated.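 48-hour exposure; five concentrations; linearly interpolated endpoints. At the GI50, growth is halved. TGI: concentration producing complete growth inhibition.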
Assays:
Experiment in all cases: NCI-60 cell line screen, 48 h
786-0 renal = test system: 786-0 renal
COLO 205 colon = test system: COLO 205 colon
EKVX NSCLC = test system: EKVX NSCLC
HCT-116 colon = test system: HCT-116 colon
HS 578T breast = test system: HS 578T breast
MDA-MB-435 = test system: MDA-MB-435
OVCAR-3 ovarian = test system: OVCAR-3 ovarian
SF-539 CNS = test system: SF-539 CNS
SK-MEL-5 melanoma = test system: SK-MEL-5 melanoma
SN12C renal = test system: SN12C renal

Compound | GI50 (786-0 renal) | GI50 (COLO 205 colon) | TGI (COLO 205 colon) | GI50 (EKVX NSCLC) | TGI (EKVX NSCLC) | GI50 (HCT-116 colon) | TGI (HCT-116 colon) | GI50 (HS 578T breast) | TGI (HS 578T breast) | GI50 (MDA-MB-435) | TGI (MDA-MB-435) | GI50 (OVCAR-3 ovarian) | TGI (OVCAR-3 ovarian) | GI50 (SF-539 CNS) | TGI (SF-539 CNS) | GI50 (SK-MEL-5 melanoma) | TGI (SK-MEL-5 melanoma) | GI50 (SN12C renal) | TGI (SN12C renal) | TGI (786-0 renal)
CN(Cc1cnc2nc(N)nc(N)c2n1)c1ccc(C(=O)NC(CCC(=O)O)C(=O)O)cc1Br (stereo unspecified) | < 0.01 µM | < 0.0215 µM | 17.4 µM | < 0.01 µM | 48.3 µM | < 0.01 µM | 2.42 µM | 1.1 µM | 6.39 µM | < 0.01 µM | 5.15 µM | < 0.01 µM | 4.43 µM | < 0.01 µM | 8.44 µM | < 0.01 µM | 4.51 µM | < 0.01 µM | > 100 µM | –
CCN(CC)Cc1cc2[nH]c3c4ccc(Cl)cc4ncc3c2cc1OC | 2.2 µM and 2.59 µM | 3.69 µM and 1.79 µM | 8.54 µM and 3.26 µM | 12.1 µM and 11.8 µM | 24.9 µM and 24.4 µM | 1.85 µM and 1.65 µM | 5.92 µM and 3.15 µM | 2.29 µM and 2.54 µM | 7.09 µM and 8.34 µM | 1.78 µM and 1.75 µM | 3.55 µM and 3.4 µM | 1.89 µM and 2.02 µM | 3.78 µM and 4.29 µM | 1.61 µM and 1.78 µM | 2.97 µM and 3.25 µM | 1.61 µM and 1.62 µM | 3 µM and 2.98 µM | 10.8 µM and 13.7 µM | 22.7 µM and 26.7 µM | 4.82 µM and 5.61 µM
O=C(CN1C(=O)S/C(=C\C(Cl)=C\c2ccccc2)C1=O)NC1C=CS(=O)(=O)C1 (stereo unspecified) | 1.8 µM | 1.54 µM | 3.76 µM | 2.19 µM | 6.06 µM | 0.377 µM | 1.83 µM | 2.33 µM | 8.33 µM | 1.55 µM | 3.41 µM | 0.729 µM | 2.33 µM | 2 µM | 4.76 µM | 1.72 µM | 3.22 µM | 1.27 µM | 5.51 µM | 4.37 µM
CC1=C(C(=O)Nc2ccc(Cl)c(C(=O)OC(C)C)c2)SCCO1 | – | – | 60 µM | – | > 95.5 µM | – | > 77.4 µM | – | 73.9 µM | – | > 100 µM | – | > 100 µM | – | > 97 µM | – | 81.4 µM | – | > 100 µM | > 100 µM
CSc1ccc2c(c1)C(N1CCN(C)CC1)Cc1ccccc1S2 (stereo unspecified) | 1.77 µM | 1.76 µM | 3.74 µM and 3.29 µM | 2.08 µM | 8.64 µM and 7.13 µM | 1.98 µM | 16 µM and 4.03 µM | 2.51 µM | 15.9 µM and 10.9 µM | 1.78 µM | 6.47 µM and 3.46 µM | 2.67 µM | 28 µM and 7.22 µM | 1.87 µM | 18.9 µM and 3.61 µM | 1.56 µM | 3.53 µM and 2.9 µM | 2.81 µM | 18.9 µM and 10.8 µM | 19.8 µM and 3.36 µM
Cc1cc(Cl)nc(N(CCCNc2ccnc3cc(Cl)ccc23)Cc2ccco2)n1 | 1.91 µM | 1.43 µM | 3.08 µM | 2.18 µM | 7.73 µM | 1.42 µM | 4.17 µM | 2.13 µM | 8.1 µM | 2.31 µM | 7.17 µM | 2.48 µM | 10.3 µM | 2.33 µM | 6.38 µM | 1.54 µM | 3.01 µM | 2.45 µM | 9.87 µM | 4.61 µM
CCOC(=O)COc1ccc2c(C)cc(=O)oc2c1 | – | – | > 100 µM | – | > 100 µM | – | > 100 µM | – | > 100 µM | – | > 100 µM | – | > 100 µM | – | > 100 µM | – | > 100 µM | – | > 100 µM | > 100 µM
COc1ccc(N(C)c2nc(N)nc3sc4c(c23)CCCC4)cc1 | < 0.01 µM | 0.021 µM | 0.0573 µM | < 0.01 µM | 18.7 µM | < 0.01 µM | 11.3 µM | < 0.01 µM | 10.3 µM | < 0.01 µM | – | 0.025 µM | 14.2 µM | < 0.01 µM | – | < 0.01 µM | 0.505 µM | < 0.01 µM | 14 µM | 13.2 µM
Cn1ncc(Cl)c1-c1cc(C(=O)N[C@H](CN)Cc2ccc(F)c(F)c2)oc1Cl | 0.0371 µM and 0.0295 µM | 0.593 µM and 0.575 µM | 5.84 µM and 3.22 µM | 2.77 µM | > 10 µM | 1.67 µM and 1.76 µM | 8.09 µM and > 6.83 µM | 0.0905 µM and 0.126 µM | 2.08 µM and 2.86 µM | 1.23 µM and 0.889 µM | 10.4 µM and > 6.54 µM | 1.97 µM and 1.6 µM | 15 µM and > 10 µM | 0.161 µM and 0.121 µM | 3.22 µM and 2.14 µM | 2.15 µM and 1.48 µM | 5.8 µM and 2.87 µM | 3.48 µM and 1.69 µM | 17.4 µM and > 10 µM | 3.79 µM and 2.1 µM
O=C1c2ccccc2C(=O)c2c(OCCOCCO)cccc21 | – | – | > 100 µM | – | > 100 µM | – | > 100 µM | – | 99.7 µM | – | > 100 µM | – | > 100 µM | – | > 100 µM | – | > 100 µM | – | 8.08 µM | > 100 µM
Cc1cc([N+](=O)[O-])c2ccccc2[n+]1[O-] | 0.158 µM and 0.258 µM | 0.113 µM and 0.117 µM | 0.338 µM and 0.319 µM | 2.77 µM | 12 µM | 0.0472 µM and 0.0407 µM | 0.336 µM and 0.364 µM | 1.18 µM and 0.989 µM | 5.74 µM and 4.8 µM | 0.336 µM and 0.286 µM | 1.58 µM and 1.2 µM | 0.392 µM and 0.319 µM | 1.71 µM and 1.25 µM | 0.303 µM and 0.214 µM | 1.2 µM and 0.867 µM | 0.171 µM and 0.157 µM | 0.334 µM and 0.355 µM | 0.278 µM and 0.27 µM | 1.8 µM and 3.09 µM | 0.483 µM and 0.75 µM
COC(=O)C=Cc1ccc2nncnc2c1 (mixture of isomers) | – | – | > 100 µM | – | > 100 µM | – | > 100 µM | – | > 100 µM | – | 35.5 µM | – | > 100 µM | – | > 100 µM | – | 20.8 µM | – | > 100 µM | > 100 µM
CN1CSC(=S)N(Cc2ccccc2)C1 | 12 µM | 15 µM | 32.3 µM | 30.3 µM | > 100 µM | 4.49 µM | 15.6 µM | 11.4 µM | 45.7 µM | 3.58 µM | 19.8 µM | 3.96 µM | 15 µM | 4.46 µM | 21.3 µM | 13.1 µM | 26.1 µM | 15.4 µM | 35.7 µM | 44.2 µM
COC(=O)CSSCc1ccc([N+](=O)[O-])cc1 | – | – | 37.7 µM | – | 69.2 µM | – | 59.6 µM | – | 59.4 µM | – | 31.3 µM | – | 46.5 µM | – | 32.7 µM | – | 50.9 µM | – | 34.1 µM | 65.3 µM
O=S(=O)(c1cnccc1N1CCN(CCO)CC1)N1CCCC1 | – | – | > 100 µM | – | > 100 µM | – | > 100 µM | – | > 100 µM | – | > 100 µM | – | > 100 µM | – | > 100 µM | – | > 100 µM | – | > 100 µM | > 100 µM
Cc1ccc(S(=O)(=O)NC(CN)C(=O)O)cc1 (stereo unspecified) | – | – | > 100 µM | – | > 100 µM | – | > 100 µM | – | > 100 µM | – | > 100 µM | – | > 100 µM | – | > 100 µM | – | > 100 µM | – | – | > 100 µM

From PubChem BioAssay (NCI)
